Experimental data published in patent US9265253B2, “Use of macrocyclic picolinamides as fungicides” (DOW AGROSCIENCES LLC, priority 2013, dated 2016).

System: Mycosphaerella graminicola; Anamorph: Septoria tritici
Assay: Leaf Blotch of Wheat (SEPTTR) disease control
Assay type: in vivo
Conditions: 1 Day Protectant, rate 100 ppm
Outline: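 Yuma wheat, 1st leaf stage; spray to run-off, acetone + 9 vol water/110 ppm Triton X-100; S. tritici spores pre- or post-treatment; dew chamber 100% RH, then greenhouse 20° C. Read: % severity vs untreated → % control.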

| SMILES | SEPTTR 1 DP disease control |
| --- | --- |
| COc1ccnc(C(=O)N[C@H]2CCC[C@H](Cc3ccc(C)cc3)[C@@H](OCCCC(F)(F)F)[C@H](C)OC2=O)c1O [Compound F55] | A (80-100) |

Same assay, conditions: 3 Day Curative, rate 100 ppm

| SMILES | SEPTTR 3 DC disease control |
| --- | --- |
| COc1ccnc(C(=O)N[C@H]2CCC[C@H](Cc3ccc(C)cc3)[C@@H](OCCCC(F)(F)F)[C@H](C)OC2=O)c1O [Compound F55] | B (More than 0-Less than 80) |

Same assay, conditions: Zymoseptoria tritici, 24 h, 1 Day Protectant, rate 100 ppm; read-out: SEPTTR 1 DP disease control

| SMILES | pest or weed control at 100 ppm |
| --- | --- |
| COc1ccnc(C(=O)N[C@H]2CCC[C@H](CCC(C)C)[C@@H](OC3CCCC3)[C@H](C)OC2=O)c1OCOC(C)=O [Compound F94] | 80 to 100% |
| CCOCC(=O)Oc1c(OC)ccnc1C(=O)N[C@H]1CCC[C@H](CCOC)[C@@H](OCC(C)C)[C@H](C)OC1=O [Compound F188] | 80 to 100% |
| COc1ccnc(C(=O)N[C@H]2CCC[C@H](CCC(C)C)[C@@H](OCC(C)C)[C@H](C)OC2=O)c1O [Compound F2] | 80 to 100% |
| COc1ccnc(C(=O)N[C@H]2CCC[C@H](Cc3ccc(F)cc3)[C@@H](OCC(F)F)[C@H](C)OC2=O)c1O [Compound F15] | 80 to 100% |
| COc1ccnc(C(=O)N[C@H]2CCC[C@H](CCC(C)C)[C@@H](OCC(C)C)[C@H](C)OC2=O)c1OCOC(C)=O [Compound F90] | 80 to 100% |

Same assay, conditions: Zymoseptoria tritici, 24 h, 1 Day Protectant, rate 121.5 g/H; read-out: SEPTTR 1 DP disease control

| SMILES | pest or weed control at 121.5 g/ha |
| --- | --- |
| CCOCC(=O)Oc1c(OC)ccnc1C(=O)N[C@H]1CCC[C@H](CCOC)[C@@H](OCC(C)C)[C@H](C)OC1=O [Compound F188] | 80 to 100% |
| COc1ccnc(C(=O)N[C@H]2CCC[C@H](CCC(C)C)[C@@H](OCC(C)C)[C@H](C)OC2=O)c1OCOC(C)=O [Compound F90] | 80 to 100% |

Same assay, conditions: Zymoseptoria tritici, 72 h, 3 Day Curative, rate 100 ppm; read-out: SEPTTR 3 DC disease control

| SMILES | pest or weed control at 100 ppm |
| --- | --- |
| COc1ccnc(C(=O)N[C@H]2CCC[C@H](CCC(C)C)[C@@H](OC3CCCC3)[C@H](C)OC2=O)c1OCOC(C)=O [Compound F94] | 80 to 100% |
| CCOCC(=O)Oc1c(OC)ccnc1C(=O)N[C@H]1CCC[C@H](CCOC)[C@@H](OCC(C)C)[C@H](C)OC1=O [Compound F188] | 80 to 100% |
| COc1ccnc(C(=O)N[C@H]2CCC[C@H](CCC(C)C)[C@@H](OCC(C)C)[C@H](C)OC2=O)c1O [Compound F2] | 80 to 100% |
| COc1ccnc(C(=O)N[C@H]2CCC[C@H](Cc3ccc(F)cc3)[C@@H](OCC(F)F)[C@H](C)OC2=O)c1O [Compound F15] | 80 to 100% |
| COc1ccnc(C(=O)N[C@H]2CCC[C@H](CCC(C)C)[C@@H](OCC(C)C)[C@H](C)OC2=O)c1OCOC(C)=O [Compound F90] | 80 to 100% |

Same assay, conditions: Zymoseptoria tritici, 72 h, 3 Day Curative, rate 121.5 g/H; read-out: SEPTTR 3 DC disease control

| SMILES | pest or weed control at 121.5 g/ha |
| --- | --- |
| CCOCC(=O)Oc1c(OC)ccnc1C(=O)N[C@H]1CCC[C@H](CCOC)[C@@H](OCC(C)C)[C@H](C)OC1=O [Compound F188] | 80 to 100% |
| COc1ccnc(C(=O)N[C@H]2CCC[C@H](CCC(C)C)[C@@H](OCC(C)C)[C@H](C)OC2=O)c1OCOC(C)=O [Compound F90] | 80 to 100% |

System: Puccinia triticina; Synonym: Puccinia recondite f. Sp. Tritici
Assay: Wheat Brown Rust (PUCCRT) disease control
Assay type: in vivo
Conditions: 1 Day Protectant, rate 100 ppm
Outline: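 Brown rust on first-leaf Yuma wheat: spore inoculation before or after spray application (acetone/Triton X-100 solution, or EC with Trycol in track spray), overnight 100% RH at 22 °C, disease developed at 24 °C. Severity scored 0–100% and converted to percent control against untreated.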

| SMILES | PUCCRT 1 DP disease control |
| --- | --- |
| COc1ccnc(C(=O)N[C@H]2CCC[C@H](Cc3ccc(C)cc3)[C@@H](OCCCC(F)(F)F)[C@H](C)OC2=O)c1O [Compound F55] | A (80-100) |

Same assay, conditions: Puccinia triticina, topical, 24 h, 1 Day Protectant, rate 100 ppm; read-out: PUCCRT 1 DP disease control

| SMILES | pest or weed control at 100 ppm |
| --- | --- |
| COc1ccnc(C(=O)N[C@H]2CCC[C@H](CCC(C)C)[C@@H](OC3CCCC3)[C@H](C)OC2=O)c1OCOC(C)=O [Compound F94] | 80 to 100% |
| CCOCC(=O)Oc1c(OC)ccnc1C(=O)N[C@H]1CCC[C@H](CCOC)[C@@H](OCC(C)C)[C@H](C)OC1=O [Compound F188] | 80 to 100% |
| COc1ccnc(C(=O)N[C@H]2CCC[C@H](CCC(C)C)[C@@H](OCC(C)C)[C@H](C)OC2=O)c1O [Compound F2] | 80 to 100% |
| COc1ccnc(C(=O)N[C@H]2CCC[C@H](Cc3ccc(F)cc3)[C@@H](OCC(F)F)[C@H](C)OC2=O)c1O [Compound F15] | 80 to 100% |
| COc1ccnc(C(=O)N[C@H]2CCC[C@H](CCC(C)C)[C@@H](OCC(C)C)[C@H](C)OC2=O)c1OCOC(C)=O [Compound F90] | 80 to 100% |

Same assay, conditions: Puccinia triticina, topical, 24 h, 1 Day Protectant, rate 121.5 g/H; read-out: PUCCRT 1 DP disease control

| SMILES | pest or weed control at 121.5 g/ha |
| --- | --- |
| CCOCC(=O)Oc1c(OC)ccnc1C(=O)N[C@H]1CCC[C@H](CCOC)[C@@H](OCC(C)C)[C@H](C)OC1=O [Compound F188] | 80 to 100% |
| COc1ccnc(C(=O)N[C@H]2CCC[C@H](CCC(C)C)[C@@H](OCC(C)C)[C@H](C)OC2=O)c1OCOC(C)=O [Compound F90] | 80 to 100% |

Same assay, conditions: Puccinia triticina, topical, 72 h, 3 Day Curative, rate 100 ppm; read-out: PUCCRT 3 DC disease control

| SMILES | pest or weed control at 100 ppm |
| --- | --- |
| COc1ccnc(C(=O)N[C@H]2CCC[C@H](CCC(C)C)[C@@H](OC3CCCC3)[C@H](C)OC2=O)c1OCOC(C)=O [Compound F94] | 80 to 100% |
| CCOCC(=O)Oc1c(OC)ccnc1C(=O)N[C@H]1CCC[C@H](CCOC)[C@@H](OCC(C)C)[C@H](C)OC1=O [Compound F188] | 80 to 100% |
| COc1ccnc(C(=O)N[C@H]2CCC[C@H](CCC(C)C)[C@@H](OCC(C)C)[C@H](C)OC2=O)c1O [Compound F2] | 0 to 80% |
| COc1ccnc(C(=O)N[C@H]2CCC[C@H](Cc3ccc(F)cc3)[C@@H](OCC(F)F)[C@H](C)OC2=O)c1O [Compound F15] | 80 to 100% |
| COc1ccnc(C(=O)N[C@H]2CCC[C@H](CCC(C)C)[C@@H](OCC(C)C)[C@H](C)OC2=O)c1OCOC(C)=O [Compound F90] | 80 to 100% |

Same assay, conditions: Puccinia triticina, topical, 72 h, 3 Day Curative, rate 121.5 g/H; read-out: PUCCRT 3 DC disease control

| SMILES | pest or weed control at 121.5 g/ha |
| --- | --- |
| CCOCC(=O)Oc1c(OC)ccnc1C(=O)N[C@H]1CCC[C@H](CCOC)[C@@H](OCC(C)C)[C@H](C)OC1=O [Compound F188] | 80 to 100% |
| COc1ccnc(C(=O)N[C@H]2CCC[C@H](CCC(C)C)[C@@H](OCC(C)C)[C@H](C)OC2=O)c1OCOC(C)=O [Compound F90] | 80 to 100% |
